In PubChem BioAssay (NCI):
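Cultured in 96-well plates, cells were exposed to test compound for 48 hours across five concentrations. TGI marks complete inhibition of growth.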

What was measured:
Experiment in all cases: inhibition of tumour cell growth, NCI panel, 48 h
[1] = test system: MCF7 breast
[2] = test system: A498 renal
[3] = test system: MDA-MB-435
[4] = test system: MDA-N
[5] = test system: RPMI-8226 leukemia
[6] = test system: HOP-92 NSCLC
[7] = test system: OVCAR-8 ovarian
[8] = test system: MALME-3M melanoma
[9] = test system: K-562 leukemia
[10] = test system: CAKI-1 renal
[11] = test system: UO-31 renal
[12] = test system: DU-145 prostate
[13] = test system: SF-539 CNS
[14] = test system: SN12C renal
[15] = test system: OVCAR-5 ovarian
[16] = test system: NCI/ADR-RES ovarian
[17] = test system: BT-549 breast
[18] = test system: SK-OV-3 ovarian
[19] = test system: UACC-62 melanoma
[20] = test system: SF-295 CNS

Row | Compound | TGI [1] [µM] | TGI [2] [µM] | TGI [3] [µM] | TGI [4] [µM] | TGI [5] [µM] | TGI [6] [µM] | TGI [7] [µM] | TGI [8] [µM] | TGI [9] [µM] | TGI [10] [µM] | TGI [11] [µM] | TGI [12] [µM] | TGI [13] [µM] | TGI [14] [µM] | TGI [15] [µM] | TGI [16] [µM] | TGI [17] [µM] | TGI [18] [µM] | TGI [19] [µM] | TGI [20] [µM]
1 | COC(=O)/C=C\Sc1ccn(/C=C\C(=O)OC)c(=S)n1 | 36.5 | 35.6 | 86.6 | > 100 | > 100 | 47.7 | 38.1 | 53.9 | > 100 | 31.9 | 50.5 | > 100 | 36.9 | 82.9 | > 100 | 40.7 | 44.9 |  |  | 
2 | CC1(C)OP23(NC(=O)OC2(C(F)(F)F)c2ccccc2O3)OC1(C)C (stereo not given) |  |  |  |  |  |  | > 100 | > 100 | > 100 |  | > 100 |  | > 100 | > 100 |  |  |  | > 100 | > 100 | > 100
3 | O=C(CCCn1cnc([N+](=O)[O-])n1)NCCn1ccnc1[N+](=O)[O-] | > 100 |  |  | > 100 | > 100 | > 100 |  |  | > 100 | > 100 | > 100 | > 100 |  |  | > 100 |  | > 100 | > 100 | > 100 | > 100
4 | CN(C)c1ccc(N2C(=S)SC(=Nc3ccccc3)C2=Nc2ccccc2)cc1 | > 100 | > 100 | > 100 | > 100 | > 100 |  | > 100 | > 100 | > 100 | > 100 | > 100 | > 100 |  | > 100 | > 100 | > 100 | > 100 | > 100 | > 100 | > 100
5 | O=C(Nc1ccccc1F)c1c(O)nc2sccn2c1=O | > 10 | > 10 | > 10 | > 10 | > 10 |  | > 10 | > 10 |  | > 10 | > 10 | > 10 | > 10 | > 10 | > 10 | > 10 |  | > 10 | > 10 | > 10
6 | COc1ccc2[nH]c(C(=O)N3CC(CCl)c4ccc(N)cc43)cc2c1 (stereo not given) | > 39.1 |  | 0.405 | 0.347 | > 35.4 | > 100 | > 68.9 | 0.302 | 0.494 | 0.299 |  |  | 1.7 | 1.62 | > 30.1 | 2.28 | 6.97 | > 100 | 0.376 | 
